Laboratory results as given in patent publication US20170050939A1, “SMALL MOLECULE INHIBITORS OF G PROTEIN COUPLED RECEPTOR 6 KINASE POLYPEPTIDES” (Mayo Foundation for Medical Education and Research, priority 2014, published 2017).

Target: T1, GRK6, recombinant full-length GST-tagged human protein (Homo sapiens, UniProt P43250)
T1 construct: GRK6, recombinant full-length GST-tagged human protein; GST
Assay: GRK6 IC50 determination (8-point concentration-response)
Assay type: biochemical
Conditions: not given
Text: Two hundred forty compounds were further characterized by determining IC50 values in a GRK6 assay. This screen has been previously described in WO 2013/063458, which is incorporated by reference in its entirety herein.

T1 sequence (P43250 whole entry): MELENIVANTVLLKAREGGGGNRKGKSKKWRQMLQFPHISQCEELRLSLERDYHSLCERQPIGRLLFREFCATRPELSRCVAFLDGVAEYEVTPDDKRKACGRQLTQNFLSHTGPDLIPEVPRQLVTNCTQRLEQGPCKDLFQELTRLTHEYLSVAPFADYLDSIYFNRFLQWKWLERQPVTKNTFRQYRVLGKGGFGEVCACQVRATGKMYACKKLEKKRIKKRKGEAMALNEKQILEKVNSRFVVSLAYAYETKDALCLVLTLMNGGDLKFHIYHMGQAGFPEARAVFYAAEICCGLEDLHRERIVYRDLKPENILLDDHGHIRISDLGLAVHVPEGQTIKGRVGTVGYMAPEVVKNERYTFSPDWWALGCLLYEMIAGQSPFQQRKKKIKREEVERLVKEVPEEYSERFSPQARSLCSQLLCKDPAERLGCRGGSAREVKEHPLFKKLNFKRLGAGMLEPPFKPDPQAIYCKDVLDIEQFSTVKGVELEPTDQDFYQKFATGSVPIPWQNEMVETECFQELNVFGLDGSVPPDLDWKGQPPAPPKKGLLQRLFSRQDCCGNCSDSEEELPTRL

IC50 [µM] | SMILES
4.85 | O=C(O)CSc1nnc(-c2ccc3nsnc3c2)[nH]1 [Compound 117]
0.431 | CC(=O)Nc1cccc(-c2cc(-c3nnc(SCC(=O)O)[nH]3)cc([N+](=O)[O-])c2)c1 [Compound 42]
4.41 | O=C(O)CSc1nnc(-c2cc(C(=O)NCc3ccccn3)cc([N+](=O)[O-])c2)[nH]1 [Compound 111]
0.136 | COc1cc(Cl)cc(-c2cc(-c3nnc(SCC(=O)O)[nH]3)cc([N+](=O)[O-])c2)c1 [Compound 14]
11.8 | O=C(O)CSc1nnc(-c2cccc(C(=O)Nc3ccccc3)c2)[nH]1 [Compound 149]
0.824 | CNS(=O)(=O)c1ccc(-c2cc(-c3nnc(SCC(=O)O)[nH]3)cc([N+](=O)[O-])c2)cc1 [Compound 62]
80.6 | CC(C)Oc1ccc(-c2nnc(SCC(=O)O)[nH]2)cc1N [Compound 190]
0.598 | Cc1cc(-c2cc(-c3ccc4ccccc4c3)cc(-c3nnc(SCC(=O)O)[nH]3)c2)cnc1C [Compound 54]
34 | O=C(O)CSc1nnc(-c2cccc(C(=O)Nc3cccnc3)c2)[nH]1 [Compound 177]
0.342 | CCn1cc(-c2cc(-c3nnc(SCC(=O)O)[nH]3)cc([N+](=O)[O-])c2)cn1 [Compound 73]
0.0923 | O=C(O)CSc1nnc(-c2cc(-c3cccc(-c4cc[nH]n4)c3)cc([N+](=O)[O-])c2)[nH]1 [Compound 7]
3.47 | COc1cc(-c2nnc(SCC(=O)O)[nH]2)cc2c1OCO2 [Compound 108]
1.38 | Cc1noc(C)c1-c1cc(-c2nnc(SCC(=O)O)[nH]2)cc([N+](=O)[O-])c1 [Compound 91]
4.78 | O=C(O)CSc1nnc(-c2cc(C(=O)NCc3cccnc3)cc([N+](=O)[O-])c2)[nH]1 [Compound 116]
0.269 | CN1CCOc2cc(-c3cc(-c4nnc(SCC(=O)O)[nH]4)cc([N+](=O)[O-])c3)ccc21 [Compound 29]
0.0739 | O=C(O)CSc1nnc(-c2cc(-c3ccc4[nH]ccc4c3)cc([N+](=O)[O-])c2)[nH]1 [Compound 5]
0.695 | O=C(O)CSc1nnc(-c2cc(OCc3ccccc3)cc([N+](=O)[O-])c2)[nH]1 [Compound 77]

IC50 [µM] | SMILES
9.82 | O=C(O)CSc1nnc(-c2cccc(C(=O)Nc3cccc4[nH]ccc34)c2)[nH]1 [Compound 143]
> 100 | O=C(O)CS(=O)(=O)c1nnc(-c2ccccc2)[nH]1 [Compound 210]
0.538 | CN(C)c1cccc(-c2cc(-c3nnc(SCC(=O)O)[nH]3)cc([N+](=O)[O-])c2)c1 [Compound 53]
7.93 | O=C(O)CSc1nnc(-c2ccc3c(c2)OC(F)(F)O3)[nH]1 [Compound 136]
0.461 | COc1cncc(-c2cc(-c3ccc4ccccc4c3)cc(-c3nnc(SCC(=O)O)[nH]3)c2)c1 [Compound 46]
0.768 | O=C(O)CSc1nnc(-c2cc(NC(=O)c3ccco3)cc(-c3ccc4ccccc4c3)c2)[nH]1 [Compound 59]
21.3 | COc1ccc(NC(=O)c2cccc(-c3nnc(SCC(=O)O)[nH]3)c2)cc1 [Compound 170]
3.3 | CC(C)Oc1ccc(-c2nnc(SCC(=O)O)[nH]2)cc1[N+](=O)[O-] [Compound 104]
0.935 | O=C(O)CSc1nnc(-c2ccc(OCc3ccccc3)c([N+](=O)[O-])c2)[nH]1 [Compound 86]
17.5 | O=C(O)CSc1nnc(-c2cccc(C(=O)Nc3ccc4ncccc4c3)c2)[nH]1 [Compound 161]
0.507 | CNS(=O)(=O)c1cccc(-c2cc(-c3nnc(SCC(=O)O)[nH]3)cc([N+](=O)[O-])c2)c1 [Compound 49]
0.786 | CC(C)(O)c1ccc(-c2cc(-c3nnc(SCC(=O)O)[nH]3)cc([N+](=O)[O-])c2)cc1 [Compound 61]
0.742 | O=C(O)CSc1nnc(-c2cc(-c3cc[nH]n3)cc([N+](=O)[O-])c2)[nH]1 [Compound 78]
0.283 | O=C(O)CSc1nnc(-c2cc(-c3cccnc3)cc(-c3ccc4ccccc4c3)c2)[nH]1 [Compound 31]
0.879 | Cc1onc(-c2ccccc2)c1-c1cc(-c2nnc(SCC(=O)O)[nH]2)cc([N+](=O)[O-])c1 [Compound 84]
1.35 | O=C(O)CSc1nnc(-c2cc(Br)cc([N+](=O)[O-])c2)[nH]1 [Compound 90]

Same assay, conditions: 20 nM GRK6, 12 μM ATP (Km), 1 μM Peptide 216, 7 h incubation

IC50 [µM] | SMILES
6.1 | COc1cc(OC)cc(-c2nnc(SCC(=O)O)[nH]2)c1 [Compound 122]
6.54 | O=C(O)CSc1nnc(-c2cc(O)cc(O)c2)[nH]1 [Compound 127]
8.75 | O=C(O)CSc1nnc(-c2cccc(F)c2O)[nH]1 [Compound 138]
0.417 | O=C(O)CSc1nnc(-c2cccc(-c3ccc4ccccc4c3)c2)[nH]1 [Compound 39]
45.3 | Cc1cc(C=O)c(O)c(-c2nnc(SCC(=O)O)[nH]2)c1 [Compound 185]
15.9 | COc1cc(-c2nnc(SCC(=O)O)[nH]2)cc([N+](=O)[O-])c1O [Compound 158]
15.4 | O=C(O)CSc1nnc(-c2ccc(N3CCCC3=O)cc2)[nH]1 [Compound 157]
0.757 | O=C(O)CSc1nnc(-c2cccc(-c3cccs3)c2)[nH]1 [Compound 81]
74.1 | CSc1ccccc1-c1nnc(SCC(=O)O)[nH]1 [Compound 188]
7.45 | O=C(O)CSc1nnc(-c2ccc(-c3cncnc3)cc2)[nH]1 [Compound 134]
